Test results: PMC6662683, “Identification of the Catechin Uptake Transporter Responsible for Intestinal Absorption of Epigallocatechin Gallate in Mice” (Scientific Reports, 2019)

Key:
[1] = target: T1, diastrophic dysplasia sulfate transporter (DTDST) (Mus musculus, UniProt Q62273); experiment: inhibition of EGCg uptake into stably expressing CHO-K1 cells, LC-MS/MS; format: cell-based; conditions: 100 μM DIDS 1 h before EGCg; 500 μM EGCg, 30 min (Figure 4 legend; methods give 100 μM EGCg); pH 6.0, 37 °C
T1 construct: gene Slc26a2; full open reading frame from mouse ileal epithelial cDNA, C-terminal FLAG tag, stably expressed in CHO-K1 cells (pcDNA3.1(+))
T1 sequence (Q62273 1-739): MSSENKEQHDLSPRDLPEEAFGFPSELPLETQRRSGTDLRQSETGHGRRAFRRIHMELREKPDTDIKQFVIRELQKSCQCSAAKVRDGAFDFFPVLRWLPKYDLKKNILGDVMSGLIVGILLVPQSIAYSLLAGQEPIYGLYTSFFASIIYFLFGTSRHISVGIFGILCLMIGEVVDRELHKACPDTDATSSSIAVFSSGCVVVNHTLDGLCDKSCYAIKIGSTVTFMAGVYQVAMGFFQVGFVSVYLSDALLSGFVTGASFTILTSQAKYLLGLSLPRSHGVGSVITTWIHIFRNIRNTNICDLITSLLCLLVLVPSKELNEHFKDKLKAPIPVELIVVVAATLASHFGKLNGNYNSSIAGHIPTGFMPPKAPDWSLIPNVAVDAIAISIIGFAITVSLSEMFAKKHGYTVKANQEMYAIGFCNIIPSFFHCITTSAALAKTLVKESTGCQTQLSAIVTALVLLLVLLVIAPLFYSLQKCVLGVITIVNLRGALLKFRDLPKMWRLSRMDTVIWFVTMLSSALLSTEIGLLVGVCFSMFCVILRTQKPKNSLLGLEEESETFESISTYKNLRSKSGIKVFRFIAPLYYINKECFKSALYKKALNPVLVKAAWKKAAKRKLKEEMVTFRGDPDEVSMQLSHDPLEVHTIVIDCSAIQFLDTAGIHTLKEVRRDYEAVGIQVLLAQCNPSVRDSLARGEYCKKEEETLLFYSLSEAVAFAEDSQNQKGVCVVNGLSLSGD

[2] = substrate: O=C(O[C@@H]1Cc2c(O)cc(O)cc2O[C@@H]1c1cc(O)c(O)c(O)c1)c1cc(O)c(O)c(O)c1; experiment: EGCg uptake into stably expressing CHO-K1 cells, mock subtracted, LC-MS/MS; format: cell-based, Mus musculus; conditions: Hanks' balanced salt solution pH 6.0, 37 °C, 30 min, 1-1000 μM EGCg

O=S(=O)(O)c1cc(N=C=S)ccc1/C=C/c1ccc(N=C=S)cc1S(=O)(=O)O [4,4′-diisothiocyano-2,2′-stilbenedisulfonic acid]
inhibition of EGCg uptake into stably expressing CHO-K1 cells, LC-MS/MS [1]: compared with mock cells was nullified in the presence of the DTDST inhibitor DIDS

B1: diastrophic dysplasia sulfate transporter (DTDST) (Mus musculus) (protein)
chain: MSSENKEQHDLSPRDLPEEAFGFPSELPLETQRRSGTDLRQSETGHGRRAFRRIHMELREKPDTDIKQFVIRELQKSCQCSAAKVRDGAFDFFPVLRWLPKYDLKKNILGDVMSGLIVGILLVPQSIAYSLLAGQEPIYGLYTSFFASIIYFLFGTSRHISVGIFGILCLMIGEVVDRELHKACPDTDATSSSIAVFSSGCVVVNHTLDGLCDKSCYAIKIGSTVTFMAGVYQVAMGFFQVGFVSVYLSDALLSGFVTGASFTILTSQAKYLLGLSLPRSHGVGSVITTWIHIFRNIRNTNICDLITSLLCLLVLVPSKELNEHFKDKLKAPIPVELIVVVAATLASHFGKLNGNYNSSIAGHIPTGFMPPKAPDWSLIPNVAVDAIAISIIGFAITVSLSEMFAKKHGYTVKANQEMYAIGFCNIIPSFFHCITTSAALAKTLVKESTGCQTQLSAIVTALVLLLVLLVIAPLFYSLQKCVLGVITIVNLRGALLKFRDLPKMWRLSRMDTVIWFVTMLSSALLSTEIGLLVGVCFSMFCVILRTQKPKNSLLGLEEESETFESISTYKNLRSKSGIKVFRFIAPLYYINKECFKSALYKKALNPVLVKAAWKKAAKRKLKEEMVTFRGDPDEVSMQLSHDPLEVHTIVIDCSAIQFLDTAGIHTLKEVRRDYEAVGIQVLLAQCNPSVRDSLARGEYCKKEEETLLFYSLSEAVAFAEDSQNQKGVCVVNGLSLSGD
notes: full open reading frame from mouse ileal epithelial cDNA, C-terminal FLAG tag, stably expressed in CHO-K1 cells (pcDNA3.1(+))
Km [2]: 576 ± 244 µM
